Data on 20 compounds can be found in patent publication US8859584B2, “TRPV1 antagonists” (AbbVie Inc., priority 2011, dated 2014).

For test [1], the target named is T1, human TRPV1 (Homo sapiens, UniProt Q8NER1).
T1 construct: expressed in transfected cells
Briefly: Capsaicin Activation Assay (FLIPR intracellular Ca2+, recombinant HEK293 cells). The following applies: recombinant HEK293 cells expressing hTRPV1; 50 nM capsaicin; read-out: human TRPV1 capsaicin IC50. Type of test: cell-based.

In test [2] the target is T1, human TRPV1. Briefly: Acid Activation Assay (pH 5.0, FLIPR intracellular Ca2+, recombinant HEK293 cells). Type of test: cell-based. The note with it: percentage of maximal pH 5.0-induced response remaining; HEK293 hTRPV1; max concentration 37.5 μM. Summed up:
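HEK293 cells stably expressing recombinant hTRPV1 were loaded with calcium dye for 90-120 min at 25° C and pre-treated with compound for 3 min before a pH 5.0 (DPBS/MES) challenge. Peak FLIPR fluorescence over baseline is given as percentage of the maximal pH 5.0-induced response.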

By IC50 is commonly meant the concentration needed to halve the response being measured.

T1 sequence (Q8NER1 whole entry): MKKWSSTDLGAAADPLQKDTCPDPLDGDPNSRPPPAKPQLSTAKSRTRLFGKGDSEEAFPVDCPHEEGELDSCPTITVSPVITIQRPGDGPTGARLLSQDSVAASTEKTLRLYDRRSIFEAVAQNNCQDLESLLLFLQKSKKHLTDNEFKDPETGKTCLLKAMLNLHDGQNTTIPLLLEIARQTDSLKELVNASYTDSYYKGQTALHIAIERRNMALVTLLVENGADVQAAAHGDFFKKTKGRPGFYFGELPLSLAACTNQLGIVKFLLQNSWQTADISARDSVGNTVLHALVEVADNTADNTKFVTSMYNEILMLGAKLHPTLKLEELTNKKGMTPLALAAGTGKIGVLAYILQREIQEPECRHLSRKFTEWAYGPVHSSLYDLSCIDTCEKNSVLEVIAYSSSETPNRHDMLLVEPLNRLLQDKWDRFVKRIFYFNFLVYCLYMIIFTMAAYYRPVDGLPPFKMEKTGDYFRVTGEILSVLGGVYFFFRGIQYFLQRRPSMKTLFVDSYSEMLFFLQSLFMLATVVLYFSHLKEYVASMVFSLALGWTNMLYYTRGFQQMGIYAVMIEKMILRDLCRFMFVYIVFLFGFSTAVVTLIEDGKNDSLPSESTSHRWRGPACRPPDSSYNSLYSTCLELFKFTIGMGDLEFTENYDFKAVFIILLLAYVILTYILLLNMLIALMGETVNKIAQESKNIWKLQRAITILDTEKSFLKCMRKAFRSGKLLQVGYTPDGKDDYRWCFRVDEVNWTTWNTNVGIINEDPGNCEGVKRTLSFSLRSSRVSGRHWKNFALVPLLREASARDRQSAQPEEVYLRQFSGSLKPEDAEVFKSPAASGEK

With `O=C(Nc1c(F)ccc2c1C[C@H](O)C2)N[C@@H]1CC(CF)(CF)Oc2cc(Cl)ccc21` [Example 175, 1-[(4R)-7-chloro-2,2-bis(fluoromethyl)-3,4-dihydro-2H-chromen-4-yl]-3-[(2R)-5-fluoro-2-hydroxy-2,3-dihydro-1H-inden-4-yl]urea], the IC50 in test [1] amounted to 470 nM. Besides, the “human TRPV1 H+ (max % remain)” value in test [2] was 37%.
For the compound `CC1(C)C[C@@H](NC(=O)Nc2ccc(F)c3c2C[C@@H](O)C3)c2ccc(F)c(F)c2O1` [Example 171, 1-[(4R)-7,8-difluoro-2,2-dimethyl-3,4-dihydro-2H-chromen-4-yl]-3-[(2R)-7-fluoro-2-hydroxy-2,3-dihydro-1H-inden-4-yl]urea], in test [1], the half-inhibitory concentration (IC50) was 400 nM. Besides, the “human TRPV1 H+ (max % remain)” value in test [2] was determined as 47%.
For the compound `CC1(C)C[C@@H](NC(=O)Nc2cccc3c2C[C@@H](O)C3)c2cccc(C(F)(F)F)c2O1` [Example 34, 1-[(4R)-2,2-dimethyl-8-(trifluoromethyl)-3,4-dihydro-2H-chromen-4-yl]-3-[(2S)-2-hydroxy-2,3-dihydro-1H-inden-4-yl]urea], in test [1], the IC50 came out at 12 nM. In addition, the “human TRPV1 H+ (max % remain)” value in test [2] worked out at 18%.
As to `Cc1cccnc1N1CC=C(C(=O)Nc2ccc(S(=O)(=O)C(F)(F)F)cc2)CC1` [E, reference compound], the half-maximal inhibitory concentration (IC50) in test [1] was 100 nM. The “human TRPV1 H+ (max % remain)” value in test [2] was found to be 2%.
Take `CCC1(CC)C[C@@H](NC(=O)Nc2cccc3c2C[C@H](O)C3)c2ccc(OC(F)(F)F)cc2O1` [Example 60, 1-[(4R)-2,2-diethyl-7-(trifluoromethoxy)-3,4-dihydro-2H-chromen-4-yl]-3-[(2R)-2-hydroxy-2,3-dihydro-1H-inden-4-yl]urea]: in test [1], the IC50 is 52 nM. The “human TRPV1 H+ (max % remain)” value in test [2] was 23%.
`O=C(Nc1ccc(F)c2c1C[C@H](O)C2)N[C@@H]1CC(CF)(CF)Oc2cc(OC(F)(F)F)ccc21` [Example 139, 1-[(4R)-2,2-bis(fluoromethyl)-7-(trifluoromethoxy)-3,4-dihydro-2H-chromen-4-yl]-3-[(2S)-7-fluoro-2-hydroxy-2,3-dihydro-1H-inden-4-yl]urea]: in test [1], the 50% inhibitory concentration (IC50) is 370 nM. In addition, the “human TRPV1 H+ (max % remain)” value in test [2] came to 2%.
Take `O=C(Nc1cccc2c1C[C@H](O)C2)N[C@@H]1CC(CF)(CF)Oc2cc(OC(F)(F)F)ccc21` [Example 31, 1-[(4R)-2,2-bis(fluoromethyl)-7-(trifluoromethoxy)-3,4-dihydro-2H-chromen-4-yl]-3-[(2R)-2-hydroxy-2,3-dihydro-1H-inden-4-yl]urea]: in test [1], the half-maximal inhibitory concentration (IC50) came out at 41 nM. Besides, the “human TRPV1 H+ (max % remain)” value in test [2] is reported as 30%.
Turning to `CCC1(CC)C[C@@H](NC(=O)Nc2cccc3c2C[C@H](O)C3)c2ccc(F)cc2O1` [Example 52, 1-[(4R)-2,2-diethyl-7-fluoro-3,4-dihydro-2H-chromen-4-yl]-3-[(2R)-2-hydroxy-2,3-dihydro-1H-inden-4-yl]urea], the concentration for half-maximal inhibition (IC50) in test [1] was 13 nM. In addition, in test [2], the “human TRPV1 H+ (max % remain)” value worked out at 73%.
As for `O=C(Nc1cccc2c1CC(O)C2)NC1CC(c2ccccc2Cl)Oc2ccccc21` (stereo not shown) [Example 120, 1-[2-(2-chlorophenyl)-3,4-dihydro-2H-chromen-4-yl]-3-(2-hydroxy-2,3-dihydro-1H-inden-4-yl)urea], the IC50 in test [1] worked out at 1600 nM. Besides, the “human TRPV1 H+ (max % remain)” value in test [2] is 51%.
For `CN1CC[C@@H](NC(=O)Nc2cccc3c2C[C@H](O)C3)c2ccc(C(F)(F)F)cc21` [Example 23, 1-[(2R)-2-hydroxy-2,3-dihydro-1H-inden-4-yl]-3-[(4R)-1-methyl-7-(trifluoromethyl)-1,2,3,4-tetrahydroquinolin-4-yl]urea], the half-inhibitory concentration (IC50) in test [1] amounted to 51 nM. For the same compound, the “human TRPV1 H+ (max % remain)” value in test [2] is recorded as 74%.
As to `CCC1(CC)C[C@@H](NC(=O)Nc2cccc3c2C[C@H](O)C3)c2cc(F)ccc2O1` [Example 58, 1-[(4R)-2,2-diethyl-6-fluoro-3,4-dihydro-2H-chromen-4-yl]-3-[(2R)-2-hydroxy-2,3-dihydro-1H-inden-4-yl]urea], the IC50 in test [1] is 24 nM. The “human TRPV1 H+ (max % remain)” value in test [2] turned out to be 67%.
In the same order, the values of `O=C(Nc1ccc(F)c2c1C[C@H](O)C2)N[C@@H]1CC2(CCC2)Oc2ccc(F)cc21` [Example 143, 1-[(4R)-6-fluoro-3,4-dihydrospiro[chromene-2,1′-cyclobutan]-4-yl]-3-[(2S)-7-fluoro-2-hydroxy-2,3-dihydro-1H-inden-4-yl]urea] are 1100 nM and 3%.
Turning to `O=C(Nc1cccc2c1CC(O)C2)NC1CC(c2ccc(C(F)(F)F)cc2)Oc2ccccc21` (stereo not shown) [Example 121, 1-(2-hydroxy-2,3-dihydro-1H-inden-4-yl)-3-{2-[4-(trifluoromethyl)phenyl]-3,4-dihydro-2H-chromen-4-yl}urea], the IC50 in test [1] came to 680 nM. Besides, in test [2], the “human TRPV1 H+ (max % remain)” value is 57%.
`COc1ccc2c(c1)OC(c1ccc(Cl)cc1)CC2NC(=O)Nc1cccc2c1CC(O)C2` (stereo not shown) [Example 122, 1-[2-(4-chlorophenyl)-7-methoxy-3,4-dihydro-2H-chromen-4-yl]-3-(2-hydroxy-2,3-dihydro-1H-inden-4-yl)urea]: in test [1], the IC50 amounted to 710 nM. The “human TRPV1 H+ (max % remain)” value in test [2] was determined as 14%.
The corresponding values for `O=C(Nc1cccc2c1C[C@H](O)C2)N[C@@H]1CC(CF)(CF)Oc2c(Cl)cccc21` [Example 2, 1-[(4R)-8-chloro-2,2-bis(fluoromethyl)-3,4-dihydro-2H-chromen-4-yl]-3-[(2R)-2-hydroxy-2,3-dihydro-1H-inden-4-yl]urea] are 160 nM and 80%.
Regarding `O=C(Nc1cccc2c1C[C@H](O)C2)N[C@@H]1CCc2c1cccc2C(F)(F)F` [Example 41, 1-[(2R)-2-hydroxy-2,3-dihydro-1H-inden-4-yl]-3-[(1R)-4-(trifluoromethyl)-2,3-dihydro-1H-inden-1-yl]urea], the IC50 in test [1] was 13 nM. In addition, the “human TRPV1 H+ (max % remain)” value in test [2] was determined as 56%.
Turning to `O=C(Nc1cccc2c1C[C@H](O)C2)N[C@@H]1CC2(CCC2)Oc2ccccc21` [Example 22, 1-[(4R)-3,4-dihydrospiro[chromene-2,1′-cyclobutan]-4-yl]-3-[(2R)-2-hydroxy-2,3-dihydro-1H-inden-4-yl]urea], in test [1], the half-inhibitory concentration (IC50) was 78 nM. Moreover, the “human TRPV1 H+ (max % remain)” value in test [2] is on record as 73%.
As for `CC1(C)C[C@@H](NC(=O)Nc2ccc(F)c3c2C[C@H](O)C3)c2ccc(Cl)cc2O1` [Example 149, 1-[(4R)-7-chloro-2,2-dimethyl-3,4-dihydro-2H-chromen-4-yl]-3-[(2S)-7-fluoro-2-hydroxy-2,3-dihydro-1H-inden-4-yl]urea], the concentration for half-maximal inhibition (IC50) in test [1] was found to be 540 nM. For the same compound, the “human TRPV1 H+ (max % remain)” value in test [2] came to 2%.
In the case of `O=C(Nc1cccc2c1C[C@H](O)C2)N[C@@H]1CC(CF)(CF)Oc2ccccc21` [Example 69, 1-[(4R)-2,2-bis(fluoromethyl)-3,4-dihydro-2H-chromen-4-yl]-3-[(2R)-2-hydroxy-2,3-dihydro-1H-inden-4-yl]urea], the IC50 in test [1] came to 400 nM. For the same compound, the “human TRPV1 H+ (max % remain)” value in test [2] is 91%.
On to `O=C(Nc1cccc2c1C[C@@H](O)C2)N[C@@H]1CC(CF)(CF)Oc2cc(Cl)ccc21` [Example 24, 1-[(4R)-7-chloro-2,2-bis(fluoromethyl)-3,4-dihydro-2H-chromen-4-yl]-3-[(2S)-2-hydroxy-2,3-dihydro-1H-inden-4-yl]urea], for which, in test [1], the half-inhibitory concentration (IC50) came to 27 nM. Also, the “human TRPV1 H+ (max % remain)” value in test [2] is 6%.
